Legend:
[1] = test system: 42 Tier 2 clade B and C viruses; settings: read-out: geometric mean titers (GMT) IC50, sensitive strains; cited from earlier work
[2] = target: full-length gp120 (Human immunodeficiency virus type 1 group M subtype B, UniProt P35961); settings: gp120 binding; cited from earlier work
[3] = test system: HIV-1YU2 virus in CD4 negative Cf2Th-CCR5 cells; settings: cells lacking the CD4 receptor (CD4–CCR5+ Cf2Th cells); cited from earlier work
[4] = test system: clade B viruses; assay: Neutralization of clade B Env pseudoviruses; assay type: cell-based, HIV-1
[5] = test system: clade C viruses; assay: Neutralization of clade C Env pseudoviruses; assay type: cell-based, HIV-1

SMILES: N=C(N)N[C@H]1Cc2ccccc2[C@@H]1NC(=O)C(=O)Nc1ccc(Cl)c(F)c1 [(+)-3]
- IC50 [1]: 7.9 µM

SMILES: N=C(N)N[C@@H]1Cc2ccccc2[C@H]1NC(=O)C(=O)Nc1ccc(Cl)c(F)c1 [(−)-3]
- IC50 [1]: 8.9 µM

SMILES: CC1(C)CC(NC(=O)C(=O)Nc2ccc(Cl)cc2)CC(C)(C)N1 [Compound 1, NBD-556]
- ΔH [2]: -24.5 kcal/mol
- −TΔS [2]: 17.1 kcal/mol
- CD4-independent viral entry [3]: agonists of CD4-independent viral entry

SMILES: N=C(N)NC[C@H]1Cc2ccccc2[C@@H]1NC(=O)C(=O)Nc1ccc(Cl)c(F)c1.O=CO [(+)-4]
- improvement over (+)-3 based on IC50 titers [4]: 60%
- improvement over (+)-3 based on IC80 titers [4]: 1.5 fold
- neutralization breadth [4]: 100%
- neutralization breadth [5]: 59%

Reference: PMC3647702 (ACS medicinal chemistry letters, 2013)
